Experimental data: patent US7410663B2, “Oil or fat composition” (Kao Corporation, priority 2002, dated 2008)

How the values were obtained:
[1] = Evaluation of gelling properties; format: physicochemical; design: key: A: The mixture lacks fluidity and is gelled.; B: The mixture has low fluidity and is gelled slightly.; C: The mixture has fluidity and is partially gelled.; D: The mixture has fluidity and is not gelled at all; conditions: 70:30 (weight/weight) mixture of oil or fat composition and water, visually observed
Source text: Gelling properties of a 70:30 (weight/weight) mixture of each oil or fat composition and water were visually observed and evaluated based on the below-described criteria. The results are shown in Table 1. • A: The mixture lacks fluidity and is gelled. • B: The mixture has low fluidity and is gelled slightly. • C: The mixture has fluidity and is partially gelled. • D: The mixture has fluidity and is not gelled at all.

[2] = Evaluation of rancid odor (organoleptic); format: physicochemical; design: key: A: The sample is almost free from a rancid odor and the odor does not cause discomfort.; B: The sample emits a little rancid odor, but the odor causes little discomfort.; C: The sample emits a rancid odor and the odor causes discomfort.; D: The sample emits a severe rancid odor and the odor causes extreme discomfort; conditions: oil or fat composition:water=70:30, room temperature for 1 week, smelled
Procedure: Each sample (each oil or fat composition:water=70:30) prepared in Example 3 was allowed to stand at room temperature for 1 week. The sample was smelled and organoleptic evaluation of rancid odor was performed based on the below-described criteria.

PPARγ = molecular target: T1, PPARγ (Homo sapiens, UniProt P37231); test: Test on PPARγ activation (GAL4-PPARγ-LBD luciferase reporter in IEC-6 cells); format: cell-based; conditions: control set at 100, test substance 500 μM, 24 hours
T1 construct: expressed in transfected cells; host or cells: IEC-6 small intestine epithelial cell line
T1 sequence (P37231 238-503 limits assumed): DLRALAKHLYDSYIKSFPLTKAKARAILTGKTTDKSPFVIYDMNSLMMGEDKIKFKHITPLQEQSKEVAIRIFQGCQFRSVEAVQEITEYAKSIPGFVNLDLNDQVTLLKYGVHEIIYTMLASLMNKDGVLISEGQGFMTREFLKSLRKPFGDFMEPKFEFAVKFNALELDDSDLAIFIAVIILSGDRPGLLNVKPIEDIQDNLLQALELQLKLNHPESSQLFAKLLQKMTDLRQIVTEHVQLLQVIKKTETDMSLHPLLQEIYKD
Procedure: The small intestine epithelial cell line IEC-6 was inoculated on a 12 well plate and cultured in DMEM (5% FCS) for 24 hours. A plasmid (pGAL4-PPARγ-LBD) expressing the chimeric molecules of a GAL4-DNA binding domain (DBD) and a PPARγ ligand binding domain (LBD) and a reporter plasmid (pREP) containing a GAL4 binding sequence upstream of a firefly luciferase gene were introduced simultaneously by using a transfection reagent (“QIAGEN”; Superfect transfection reagent), each in an amount of 0.5 μg/well. In order to monitor the transfection efficiency, a renilla luciferase gene was incorporated in the pGAL4-PPARγ-LBD at the same time. The culture broth was then replaced with a DMEM (+250 μM BSA) medium containing a test substance (500 μM), followed by incubation for further 24 hours. After washing with PBS, the cells were lysed using dual luciferase assay system (product of Promega Corporation). To the resulting lysate was added a substrate solution containing luciferin, and firefly and renilla luciferase activities were measured by a luminometer. In the above-described manner, the PPARγ activating capacity was evaluated by measuring the transcriptional activity (luciferase activity) of the PPARγ-dependent gene. It is to be noted that the PPARγ-dependent gene transcriptional activity (luciferase activity) was defined as described below. […]

Compound	Gelling properties [1]	Rancid odor [2]	PPARγ (PPARγ-dependent transcriptional activity, luciferase, relative to control) (PPARγ)
CC/C=C\C/C=C\C/C=C\C/C=C\C/C=C\CCCC(=O)O [Oil or Fat Composition 7, Eicosapentaenoic acid]	D	D	480
CC/C=C\C/C=C\C/C=C\C/C=C\C/C=C\C/C=C\CCC(=O)O [Oil or Fat Composition 8, Docosahexaenoic acid]	D	D	508
